Assay [1] deals with PSA secretion of LNCaP cells. The assay can be described thus: Inhibitory activity on PSA secretion of LNCaP cells. The format is cell-based. As to conditions: Homo sapiens, 96 h; LNCaP cells, 1 nM testosterone medium, 4 days of incubation, PSA kit OD450; read-out: IC50 (inhibition of PSA secretion of LNCaP cells). The procedure:
The following in vitro assay was performed to determine the activity of the compounds of the present invention for inhibiting prostate specific antigen (PSA) secretion of LNCaP cells.
(11). Testosterone culture medium: RIPM 1640 culture medium, 10% CS-FBS, 1% Pen Strep, 1 nM testosterone
LNCaP cells were subcultured in cell culture medium, resuspended in active carbon culture medium, and then inoculated into a 96-well plate (100 μl/well) with an inoculation density of 5×10^4 cells/well.
The test compounds were dissolved in DMSO (dimethyl sulfoxide) and prepared as a 10 mM stock solution. When used, the stock solution was diluted with 5×DMSO and then diluted with a threefold gradient to obtain 8 gradient concentrations. Then, the 8 gradient concentrations were each diluted with 20× testosterone culture medium, in order to ensure DMSO concentration in each culture system was 0.5%. Diluted test compounds remained to be tested.
10 μl of diluted test compounds were added to a 96-well plate and mixed gently. 10 μl of 0.5% DMSO diluted with active carbon culture medium was added to the blank group, and 10 μl of 0.5% DMSO diluted with testosterone culture medium was added to the control group. The 96-well plate was cultured in an incubator under the conditions of 37° C. and 5% CO2.
After 4 days of incubation, 60 μl of cell cultural supernatants were collected, and the OD450 value per well was measured on a NOVO Star microplate reader using PSA kit (Abnova, KA0208).
(§1) IC50 values were calculated from the data of the inhibition rates of the test compounds at various concentrations.

For the next assay, the system named is LNCaP cells. The assay can be described thus: Proliferation inhibition of LNCaP cells (CCK-8). It is filed as cell-based. As to conditions: Homo sapiens, 144 h, cultured 3 + 3 days, CCK-8, OD at 450 nm. As for the experimental part: The following in vitro assay was performed to determine the activity of the compounds of the present invention for inhibiting the proliferation of LNCaP cells.
(1). Cell counting reagent CCK-8 (DOJINDO, CK04)
See experimental procedure from Test Example 1.
After LNCaP cells were cultured for 3 days, the culture medium, test compounds, blank group, and control group were renewed with half of the liquid volume, and were cultured for another 3 days. Then, all 96-well plates were mixed gently with 10 μl of CCK-8 and cultured in an incubator for 2-3 hours under the conditions of 37° C. and 5% CO2. The OD value per well was measured at 450 nm on a Victor3 microplate reader.
as §1

For orientation: IC50 means the concentration needed to halve the response being measured.

As to `CC1(C)C(=O)N(c2ccc(C#N)c(C(F)(F)F)c2)C(=S)N1c1ccc(OCC2(C#N)CC2)c(F)c1` [Example 39, 4-(3-(4-((1-Cyanocyclopropyl)methoxy)-3-fluorophenyl)-4,4-dimethyl-5-oxo-2-thioxoimidazolidin-1-yl)-2-(trifluoromethyl)benzonitrile], the IC50 in assay [1] is 27 nM; with LNCaP cells it was 256 nM.
On to `CC(=O)N1CCC(Oc2ccc(N3C(=S)N(c4ccc(C#N)c(C(F)(F)F)c4)C(=O)C3(C)C)cc2F)C1` (stereo not shown) [Example 36, 4-(3-(4-((1-Acetylpyrrolidin-3-yl)oxy)-3-fluorophenyl)-4,4-dimethyl-5-oxo-2-thioxoimidazolidin-1-yl)-2-(trifluoromethyl)benzonitrile], for which the 50% inhibitory concentration (IC50) in assay [1] was 23 nM; in the assay on LNCaP cells, 115 nM.
`CC1(C)C(=O)N(c2ccc(C#N)c(C(F)(F)F)c2)C(=S)N1c1ccc(O[C@@H]2CCOC2)nc1` [Example 21, (R)-4-(4,4-Dimethyl-5-oxo-3-(6-((tetrahydrofuran-3-yl)oxy)pyridin-3-yl)-2-thioxoimidazolidin-1-yl)-2-(trifluoromethyl)benzonitrile]: the results for the IC50 (in assay [1]; in the assay with LNCaP cells) were 76 nM and 92 nM, respectively.
In the same order, the values of `CC1(C)C(=O)N(c2ccc(C#N)c(C(F)(F)F)c2)C(=S)N1c1ccc(OCC(O)CO)cc1` (stereo not shown) [Example 48, 4-(3-(4-(2,3-Dihydroxypropoxy)phenyl)-4,4-dimethyl-5-oxo-2-thioxoimidazolidin-1-yl)-2-(trifluoromethyl)benzonitrile] are 37 nM and 281 nM.
The matching figures for `CC1(C)C(=O)N(c2ccc(C#N)c(C(F)(F)F)c2)C(=S)N1c1ccc(O[C@@H]2CCOC2)c(F)c1` [Example 1, (R)-4-(3-(3-Fluoro-4-((tetrahydrofuran-3-yl)oxy)phenyl)-4,4-dimethyl-5-oxo-2-thioxoimidazolidin-1-yl)-2-(trifluoromethyl)benzonitrile]: 34 nM and 195 nM.
Take `CC1(C)C(=O)N(c2ccc(C#N)c(C(F)(F)F)c2)C(=S)N1c1ccc(O[C@H]2CCOC2)nc1` [Example 24, (S)-4-(4,4-Dimethyl-5-oxo-3-(6-((tetrahydrofuran-3-yl)oxy)pyridin-3-yl)-2-thioxoimidazolidin-1-yl)-2-(trifluoromethyl)benzonitrile]: the IC50 in assay [1] amounted to 32 nM; in the assay with LNCaP cells, 92 nM.
With `CC1(C)C(=O)N(c2ccc(C#N)c(Cl)c2)C(=S)N1c1ccc(OCC2(N)CC2)c(F)c1` [Example 35, 4-(3-(4-((1-Aminocyclopropyl)methoxy)-3-fluorophenyl)-4,4-dimethyl-5-oxo-2-thioxoimidazolidin-1-yl)-2-chlorobenzonitrile], the IC50 came out at 57 nM in assay [1] and 277 nM in the assay on LNCaP cells.
`CC1(C)C(=O)N(c2ccc(C#N)c(C(F)(F)F)c2)C(=S)N1c1ccc(OCCCS(C)(=O)=O)c(F)c1` [Example 22, 4-(3-(3-Fluoro-4-(3-(methylsulfonyl)propoxy)phenyl)-4,4-dimethyl-5-oxo-2-thioxoimidazolidin-1-yl)-2-(trifluoromethyl)benzonitrile]: the IC50 amounted to 21 nM in assay [1] and 134 nM in the assay on LNCaP cells.
The matching figures for `CNC(=O)COc1ccc(N2C(=S)N(c3ccc(C#N)c(C(F)(F)F)c3)C(=O)C2(C)C)cc1F` [Example 32, 2-(4-(3-(4-Cyano-3-(trifluoromethyl)phenyl)-5,5-dimethyl-4-oxo-2-thioxoimidazolidin-1-yl)-2-fluorophenoxy)-N-methylacetamide]: 110 nM and 134 nM.
As to `CN1CCC(Oc2ccc(N3C(=S)N(c4ccc(C#N)c(C(F)(F)F)c4)C(=O)C3(C)C)cc2F)C1` (stereo not shown) [Example 29, 4-(3-(3-Fluoro-4-((1-methylpyrrolidin-3-yl)oxy)phenyl)-4,4-dimethyl-5-oxo-2-thioxoimidazolidin-1-yl)-2-(trifluoromethyl)benzonitrile], the values for the IC50 (in assay [1]; in the assay with LNCaP cells) were 85 nM and 80 nM, respectively.
Take `CC1(C)C(=O)N(c2ccc(C#N)c(C(F)(F)F)c2)C(=S)N1c1ccc(OC2CCNCC2)c(F)c1` [Example 19, 4-(3-(3-Fluoro-4-((piperidin-4-yl)oxy)phenyl)-4,4-dimethyl-5-oxo-2-thioxoimidazolidin-1-yl)-2-(trifluoromethyl)benzonitrile]: the IC50 in assay [1] stood at 94 nM; with LNCaP cells, 194 nM.
For the compound `CC1(C)C(=O)N(c2ccc(C#N)c(C(F)(F)F)c2)C(=S)N1c1ccc(OC2CCS(=O)(=O)CC2)c(F)c1` [Example 23, 4-(3-(4-((1,1-Dioxidotetrahydro-2H-thiopyran-4-yl)oxy)-3-fluorophenyl)-4,4-dimethyl-5-oxo-2-thioxoimidazolidin-1-yl)-2-(trifluoromethyl)benzonitrile], the IC50 in assay [1] stood at 24 nM; in the assay on LNCaP cells it was 180 nM.
In the same order, the values of `CC1(C)C(=O)N(c2ccc(C#N)c(C(F)(F)F)c2)C(=S)N1c1ccc(OC2COC2)c(F)c1` [Example 41, 4-(3-(3-Fluoro-4-((oxetan-3-yl)oxy)phenyl)-4,4-dimethyl-5-oxo-2-thioxoimidazolidin-1-yl)-2-(trifluoromethyl)benzonitrile] are 24 nM and 283 nM.
As to `CC1(C)C(=O)N(c2ccc(C#N)c(C(F)(F)F)c2)C(=S)N1c1ccc(OC(F)F)c(F)c1` [Example 3, 4-(3-(4-(Difluoromethoxy)-3-fluorophenyl)-4,4-dimethyl-5-oxo-2-thioxoimidazolidin-1-yl)-2-(trifluoromethyl)benzonitrile], the IC50 was 35 nM in assay [1] and 46 nM with LNCaP cells.
Turning to `CNC(=O)C1(COc2ccc(N3C(=S)N(c4ccc(C#N)c(C(F)(F)F)c4)C(=O)C3(C)C)cc2F)CC1` [Example 34, 1-((4-(3-(4-Cyano-3-(trifluoromethyl)phenyl)-5,5-dimethyl-4-oxo-2-thioxoimidazolidin-1-yl)-2-fluorophenoxy)methyl)-N-methylcyclopropanecarboxamide], the IC50 in assay [1] was found to be 51 nM; in the assay with LNCaP cells, 159 nM.
Turning to `CC1(C)C(=O)N(c2ccc(C#N)c(C(F)(F)F)c2)C(=S)N1c1ccc(OCC2(O)CC2)c(F)c1` [Example 5, 4-(3-(3-Fluoro-4-((1-hydroxycyclopropyl)methoxy)phenyl)-4,4-dimethyl-5-oxo-2-thioxoimidazolidin-1-yl)-2-(trifluoromethyl)benzonitrile], the IC50 in assay [1] stood at 124 nM; in the assay on LNCaP cells it was 87 nM.
For `CC1(C)C(=O)N(c2ccc(C#N)c(C(F)(F)F)c2)C(=S)N1c1ccc(OCC2CCOC2)nc1` (stereo not shown) [Example 25, 4-(4,4-Dimethyl-5-oxo-3-(6-((tetrahydrofuran-3-yl)methoxy)pyridin-3-yl)-2-thioxoimidazolidin-1-yl)-2-(trifluoromethyl)benzonitrile], the IC50 stood at 31 nM in assay [1] and 111 nM with LNCaP cells.
With `CC1(C)C(=O)N(c2ccc(C#N)c(C(F)(F)F)c2)C(=S)N1c1ccc(OC2COC2)cc1` [Example 40, 4-(4,4-Dimethyl-3-(4-((oxetan-3-yl)oxy)phenyl)-5-oxo-2-thioxoimidazolidin-1-yl)-2-(trifluoromethyl)benzonitrile], the IC50 in assay [1] turned out to be 29 nM; with LNCaP cells, 196 nM.
In the same order, the values of `CNC(=O)c1ccccc1Oc1ccc(N2C(=S)N(c3ccc(C#N)c(C(F)(F)F)c3)C(=O)C2(C)C)cc1F` [Example 26, 2-(4-(3-(4-Cyano-3-(trifluoromethyl)phenyl)-5,5-dimethyl-4-oxo-2-thioxoimidazolidin-1-yl)-2-fluorophenoxy)-N-methylbenzamide] are 44 nM and 201 nM.
Take `CN1CCC(Oc2ccc(N3C(=S)N(c4ccc(C#N)c(C(F)(F)F)c4)C(=O)C3(C)C)cc2F)CC1` [Example 20, 4-(3-(3-Fluoro-4-((1-methylpiperidin-4-yl)oxy)phenyl)-4,4-dimethyl-5-oxo-2-thioxoimidazolidin-1-yl)-2-(trifluoromethyl)benzonitrile]: the IC50 in assay [1] was 57 nM; in the assay on LNCaP cells, 156 nM.

The values above are taken from patent US9586947B2, “Imidazoline derivatives, preparation methods thereof, and their applications in medicine” (priority 2012, dated 2017).
